Values belong to the compound of their own block, whether it stands above or below them.
Assay: Skin sensitivity: stimulation index (SI) value by the LLNA method (OECD test guideline 429)
Type: in vivo
Conditions: stimulation index of the single compound (raw material)

Structure (SMILES): C=CC(=O)NC(C)C(=O)OC (stereo not shown) [Example A1-6, N-acryloyl alaninemethyl ester]
- SI value: (see Synthesis example 6) SI = 1.37

Structure (SMILES): C=CC(=O)NCNC(=O)C=C [Example B1-1]
- SI value: SI = 1.08

Structure (SMILES): C=CC(=O)NCCNC(=O)C=C [Example B1-2]
- SI value: SI = 1.23

Structure (SMILES): C=CC(=O)NCCN(CCNC(=O)C=C)C(=O)C=C [Example B1-3]
- SI value: “FOM-03007” obtained from FUJIFILM Corporation SI = 1.44

Structure (SMILES): C=CC(=O)NCCN(CCN(CCNC(=O)CC)C(=O)C=C)C(=O)C=C [Example B1-4]
- SI value: “FOM-03009” obtained from FUJIFILM Corporation SI = 1.52

Results, then the compound that gave them:

- SI value: (see Synthesis example 2) SI = 1.01
Structure (SMILES): C=CC(=O)NCC(=O)OC [Example A1-2, N-acryloylglycine methyl ester]

- SI value: (see Synthesis example 3) SI = 1.21
Structure (SMILES): C=CC(=O)NCC(=O)OCC [Example A1-3, N-acryloylglycine ethyl ester]

- SI value: (see Synthesis example 5) SI = 1.45
Structure (SMILES): C=CC(=O)NCCCC(=O)OC [Example A1-5, N-acryloyl-4-butyric acid methyl ester]

- SI value: (see Synthesis example 7) SI = 1.00
Structure (SMILES): C=CC(=O)N(C)CC(=O)OC [Example A2-1, N-acryloyl-N-methyl glycine methyl ester]

- SI value: (see Synthesis example 10) SI = 1.70
Structure (SMILES): C=CC(=O)N1CCC(C(=O)OCC)CC1 [Example A2-5, ethyl N-acryloylpiperidine-4-carboxylate]
